From the NIST ThermoML archive (doi:10.1016/j.jct.2017.07.019)
Numbers after ± are expanded uncertainties.

Conditions: Liquid, Ebulliometric method (Recirculating still)

Cc1ccc(C)cc1 [1,4-dimethylbenzene]
vapor or sublimation pressure (411.45 K): 101.3 ± 0.7 kPa

OCC(F)(F)C(F)F [2,2,3,3-tetrafluoro-1-propanol]
vapor or sublimation pressure (382.15 K): 101.3 ± 0.6 kPa

ClC(Cl)Cl [trichloromethane]
vapor or sublimation pressure (334.35 K): 101.3 ± 0.7 kPa

O [water]
vapor or sublimation pressure (373.05 K): 101.3 ± 0.6 kPa
